Measured values reported in PubChem BioAssay (NCI).
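Interpolation was linear, between the two tested concentrations surrounding the appropriate level; five concentrations were tested over 48 hours in 96-well plates. TGI: total growth inhibition.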

Assays:
Assay in all cases: DTP human tumour cell line panel, 48 h
SNB-19 CNS = test system: SNB-19 CNS
U251 CNS = test system: U251 CNS
K-562 leukemia = test system: K-562 leukemia
SN12C renal = test system: SN12C renal
MDA-MB-435 = test system: MDA-MB-435
MCF7 breast = test system: MCF7 breast
SNB-75 CNS = test system: SNB-75 CNS
SF-268 CNS = test system: SF-268 CNS
786-0 renal = test system: 786-0 renal
HL-60(TB) leukemia = test system: HL-60(TB) leukemia
HCT-116 colon = test system: HCT-116 colon
OVCAR-4 ovarian = test system: OVCAR-4 ovarian
RXF 393 renal = test system: RXF 393 renal
BT-549 breast = test system: BT-549 breast
UACC-62 melanoma = test system: UACC-62 melanoma
HCT-15 colon = test system: HCT-15 colon
NCI-H460 lung = test system: NCI-H460 lung
HS 578T breast = test system: HS 578T breast
A549 NSCLC = test system: A549 NSCLC
CAKI-1 renal = test system: CAKI-1 renal
DU-145 prostate = test system: DU-145 prostate
HOP-62 NSCLC = test system: HOP-62 NSCLC
COLO 205 colon = test system: COLO 205 colon
SK-OV-3 ovarian = test system: SK-OV-3 ovarian
IGROV1 ovarian = test system: IGROV1 ovarian
ACHN renal = test system: ACHN renal
NCI-H23 lung = test system: NCI-H23 lung
SW-620 colon = test system: SW-620 colon
SK-MEL-5 melanoma = test system: SK-MEL-5 melanoma
MOLT-4 leukemia = test system: MOLT-4 leukemia
SK-MEL-28 melanoma = test system: SK-MEL-28 melanoma
A498 renal = test system: A498 renal
SF-295 CNS = test system: SF-295 CNS
NCI-H522 lung = test system: NCI-H522 lung
NCI-H226 lung = test system: NCI-H226 lung
HCC-2998 colon = test system: HCC-2998 colon
UACC-257 melanoma = test system: UACC-257 melanoma
MDA-MB-231 breast = test system: MDA-MB-231 breast
OVCAR-5 ovarian = test system: OVCAR-5 ovarian
TK-10 renal = test system: TK-10 renal
KM12 colon = test system: KM12 colon
OVCAR-3 ovarian = test system: OVCAR-3 ovarian
CCRF-CEM leukemia = test system: CCRF-CEM leukemia
SR leukemia = test system: SR leukemia
HT29 colon = test system: HT29 colon
HOP-92 NSCLC = test system: HOP-92 NSCLC
NCI/ADR-RES ovarian = test system: NCI/ADR-RES ovarian
MDA-N = test system: MDA-N
M14 melanoma = test system: M14 melanoma
LOX IMVI melanoma = test system: LOX IMVI melanoma
MALME-3M melanoma = test system: MALME-3M melanoma
RPMI-8226 leukemia = test system: RPMI-8226 leukemia
EKVX NSCLC = test system: EKVX NSCLC
T-47D breast = test system: T-47D breast
PC-3 prostate = test system: PC-3 prostate
OVCAR-8 ovarian = test system: OVCAR-8 ovarian
SF-539 CNS = test system: SF-539 CNS
SK-MEL-2 melanoma = test system: SK-MEL-2 melanoma

Measured: TGI

O=c1c2cccnc2[nH]c2ccc3[nH]ncc3c12
> 10 µM: SNB-19 CNS | U251 CNS | K-562 leukemia | SN12C renal | MDA-MB-435 | MCF7 breast | SNB-75 CNS | SF-268 CNS | 786-0 renal | HL-60(TB) leukemia | HCT-116 colon | OVCAR-4 ovarian | RXF 393 renal | BT-549 breast | UACC-62 melanoma | HCT-15 colon | NCI-H460 lung | HS 578T breast | A549 NSCLC | CAKI-1 renal | DU-145 prostate | HOP-62 NSCLC | COLO 205 colon | SK-OV-3 ovarian | IGROV1 ovarian | ACHN renal | NCI-H23 lung | SW-620 colon | SK-MEL-5 melanoma | MOLT-4 leukemia | SK-MEL-28 melanoma | A498 renal | SF-295 CNS | NCI-H522 lung | NCI-H226 lung | HCC-2998 colon | UACC-257 melanoma | MDA-MB-231 breast | OVCAR-5 ovarian | TK-10 renal | KM12 colon | OVCAR-3 ovarian | CCRF-CEM leukemia | SR leukemia | HT29 colon | HOP-92 NSCLC | NCI/ADR-RES ovarian | MDA-N | M14 melanoma | LOX IMVI melanoma | MALME-3M melanoma | RPMI-8226 leukemia | EKVX NSCLC | T-47D breast | PC-3 prostate | OVCAR-8 ovarian | SF-539 CNS | SK-MEL-2 melanoma
